Data published in US20190297888A1, “FUNGICIDAL COMPOUNDS AND MIXTURES FOR FUNGAL CONTROL IN CEREALS” (Dow AgroSciences LLC, priority 2016, published 2019).

What was measured:
Type in all cases: in vivo
[1] = system: Puccinia triticina (PUCCRT); test: Field assessment of Compound I and penthiopyrad on brown rust of wheat (AUDPC % control); conditions: AUDPC-based, 2 field trials
Description: (§1) Treatments consisting of the compound of Formula I and fungicide compound penthiopyrad were applied either using individually or as a two-way mixture of penthiopyrad with the compound of Formula I. The compound of Formula I was applied with Agnique BP-420 (50% w/w at 0.3% v/v) at 75 and 150 g ai/ha and Penthiopyrad (Vertisan) was applied at 125 and 200 g ai/ha. Commercial standards used in the studies were Fluxapyroxad (Imtrex), applied at 100 g ai/ha, and Metconazole+Fluxapyroxad (Librax), applied at 161 g ai/ha.
Fungicidal treatments containing the compound of Formula I and penthiopyrad, either individually or as a two-way mixture, were assessed against brown rust of wheat (PUCCRT) in two separate field trials. In the first trial, fungicidal treatments were applied at B37-39 (protectant, approximately 0% infection at application) growth stages of wheat (TRZAW, MV Vanek variety) under natural infection of brown rust. The treatment was part of an experimental trial designed as a randomized complete block with four replications and a plot of approximately 2×3 m. Fungicidal treatments were applied at a water volume of 200 L/ha, using a backpack plot sprayer with a TEEJET QJ90-2XTT110 015 Nozzle.
In the second trial, fungicidal treatments containing the compound of Formula I and penthiopyrad, either individually or as a two-way mixture, were applied at B33 (curative, approximately 6.6% infection at application) growth stage of wheat (TRZAW, Miradoux variety) under natural infection of brown rust. The treatments were part of an experimental trial designed as a randomized complete block with four replications and a plot of approximately 2×3 m. Fungicidal treatments were applied at a water volume of 200 L/ha, using a backpack plot sprayer with a HARDI MD 110-02 Nozzle.
(§2) Disease severity (percentage of visual diseased foliage on whole plot or leaves) in both field trials was recorded following EPPO PP1/26 guideline prescriptions. Area under the disease progress curve (AUDPC) was calculated for each plot in both trials using the sets of recorded severity data. Relative AUDPC (% control based on AUDPC) was calculated as percent of the nontreated control. Final results for the control of brown rust of wheat by the compound of Formula I, penthiopyrad and mixtures are reported as an average of the relative AUDPC calculated over all […] field trials. Statistical analysis was done according to ANOVA and Tukey's test (p=0.10).

[2] = system: Zymoseptoria tritici (SEPTTR); test: Field assessment of Compound I and penthiopyrad on leaf blotch of wheat (AUDPC % control); conditions: AUDPC-based, 3 field trials
Description: as §1
Fungicidal treatments containing the compound of Formula I and penthiopyrad, either individually or as a two-way mixture, were assessed against leaf spot of wheat (SEPTTR) in three separate field trials. In the first trial, fungicidal treatments were applied at B33 (3% infection at application on L3) growth stage of winter wheat (TRZAW, Dinosor variety). The treatments were part of an experimental trial designed as a randomized complete block with four replications and a plot of approximately 1×6 m. Treatments were applied at water volume of 200 L/ha, using a backpack plot sprayer (BKPCKENG, FLATFANA nozzle) and pressurized at 200 kPa.
In the second trial, fungicidal treatments were applied twice at B32 (curative, 25% infection at application on L5) and B37-39 (5% infection at application on L3) growth stages of winter wheat (TRZAW, Consort variety). The treatments were part of an experimental trial designed as a randomized complete block with four replications and a plot of approximately 1×2 m. Treatments were applied at water volume of 200 L/ha, using a backpack plot sprayer (BKPCKAIR, Flat fan nozzle) and pressurized at 210 kPa.
In the final trial, fungicidal treatments were applied twice at B32 (protective, 15% infection at application on L6) and B37-39 (12% infection at application on L5) growth stages of winter wheat (TRZAW, Smaragd variety). The treatments were part of an experimental trial designed as a randomized complete block with four replications and a plot of approximately 2×3 m. Treatments were applied at water volume of 200 L/ha, using a backpack plot sprayer (BICYCAIR, FLATFANA nozzle) and pressurized at 220 kPa.
as §2, with “leaf spot” for “brown rust”, “Statistical analysis was done according to ANOVA and Tukey's test (p=0.10).” left out

[3] = system: Puccinia striiformis (PUCCST); test: Field assessment of Compound I and penthiopyrad on yellow rust of wheat (AUDPC % control); conditions: AUDPC-based, 2 field trials
Description: as §1
Fungicidal treatments containing the compound of Formula I and penthiopyrad, either individually or as a two-way mixture, were assessed against yellow rust of wheat (PUCCST) in two separate field trials. In the first trial, fungicidal treatments were applied twice at B31-32 (early curative, 2% infection at application on L3) and B37-39 (0% infection at application on L) growth stages of winter wheat (TRZAW, Fairplay variety). The treatments were part of an experimental trial designed as a randomized complete block with four replications and a plot of approximately 1×6 m. Treatments were applied at water volume of 200 L/ha, using a backpack plot sprayer (BKPCKENG, F110-015 Hardi (3) Flat fan nozzle) and pressurized at 200 kPa.
In the second trial, fungicidal treatments containing the compound of Formula I and penthiopyrad, either individually or as a two-way mixture, were applied twice at B31-32 (early curative, 5% infection on L5 at application) and B37-39 (early curative, 5% infection on L1 and L2 at application) growth stages of wheat (TRZAW, Torch variety). The treatment was part of an experimental trial designed as a randomized complete block with four replications and a plot of approximately 2×3 m. Treatments were applied at water volume of 200 L/ha, using a backpack precision plot sprayer (BKCKAIR, F110-03 Hypro (4) Flat fan nozzle) and pressurized at 300 kPa.
as §2, with “yellow” for “brown”

In the case of CC(C)CC(C)c1sccc1NC(=O)c1cn(C)nc1C(F)(F)F (stereo not drawn) [Penthiopyrad, N-[2-(1,3-dimethylbutyl)-3-thienyl]-1-methyl-3-(trifluoromethyl)-1H-pyrazole-4-carboxamide], the “PUCCRT % Control” value ([1]; rate 125 g ai/ha) is reported as 84.2%, the “PUCCRT % Control” value ([1]; rate 200 g ai/ha) is reported as 85.1% and the “SEPTTR % Control” value ([2]; rate 125 g ai/ha) is reported as 42.3%. The “SEPTTR % Control” value ([2]; rate 200 g ai/ha) was 51.4%, the “PUCCST % Control” value ([3]; rate 125 g ai/ha) was 39.6% and the “PUCCST % Control” value ([3]; rate 200 g ai/ha) was 46.5%.
